# According to US7741479B2, “Urea inhibitors of MAP kinases” (Locus Pharmaceuticals, Inc., priority 2004, dated 2010):
# Biological target: T1, p38 (Homo sapiens, UniProt Q16539)
# T1 construct: made in house
# Experiment: Protein Kinase Assay (33P incorporation from γ-[33P]ATP into GST-ATF-2 substrate)
# Assay type: biochemical
# Details: compound at 0.5 μM (noted beside the value in Table 1)
# Experimental: Human non-activated p38 kinase (MW=43 kDa) was purified according to the protocol described herein. Chemicals were purchased from Calbiochem. Fluorescence characterizations were conducted using a Cary Eclipse (Varian Analytical Instruments, Walnut Creek, Calif.). Research-grade CM5 sensor chips and coupling reagents (N-ethyl-N′-dimethylaminopropylcarbodiimide (EDC) N-hydroxysuccinimide (NHS), and 1 M ethanolamine HCl, pH 8.5) were purchased from Biacore AB (Uppsala, Sweden). The biosensor analyses were conducted using a Biacore 3000 SPR instrument. The kinetic analyses were carried on a Molecular Devices spectrophotometer (Molecular Devices Corporation, CA, USA).
# Protein Kinase Assay. The protein kinase activity of p38 was determined by measuring the incorporation of ^33P from γ-[^33P]ATP into the GST-ATF-2 substrate, amino acids 19-96 (Upstate, NY USA). […] Compounds were preincubated with 10 nM p38 for 20 min at 30° C.; the reactions were initiated by the addition of GST-ATF2 and ATP and incubated for 70 min at 30° C. before being stopped by the addition of 10 μL of 600 mM phosphoric acid. The phosphorylated substrate was captured on phosphocellulose 96-well plate (Millipore MAPHNOB 10), washed with 100 mM phosphoric acid, and counted in a BeckmenCoulter LS6500 liquid scintillation counter.
# T1 sequence (Q16539 whole entry): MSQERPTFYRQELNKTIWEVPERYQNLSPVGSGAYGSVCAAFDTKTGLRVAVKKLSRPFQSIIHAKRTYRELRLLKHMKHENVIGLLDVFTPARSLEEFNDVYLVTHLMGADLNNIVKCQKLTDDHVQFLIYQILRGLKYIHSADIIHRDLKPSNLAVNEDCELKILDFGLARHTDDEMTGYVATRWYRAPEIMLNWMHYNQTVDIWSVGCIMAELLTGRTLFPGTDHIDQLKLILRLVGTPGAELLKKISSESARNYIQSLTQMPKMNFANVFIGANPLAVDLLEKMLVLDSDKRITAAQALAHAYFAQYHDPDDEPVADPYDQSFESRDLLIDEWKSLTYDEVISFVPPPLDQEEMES
row,inhibition at 0.5 µM,SMILES
1,51 to 76%,"CC(C)(C)c1cc(NC(=O)Nc2ccc3ccccc3c2)c(N2CCS(=O)(=O)CC2)s1 [Example 27, 1-[5-tert-butyl-2-(1,1-dioxo-1λ^6-thiomorpholin-4-yl)thiophen-3-yl]-3-naphthalen-2-ylurea]"

# Same assay, conditions: compound at 10 μM
row,inhibition at 10 µM,SMILES
1,76 to 100%,"CC(C)(C)c1cc(C(=O)N2CCS(=O)(=O)CC2)c(NC(=O)Nc2ccc(Cl)cc2)s1 [Example 1, 1-[5-tert-butyl-3-(1,1-dioxo-1λ^6-thiomorpholine-4-carbonyl)thiophen-2-yl]-3-(4-chlorophenyl)urea]"
2,76 to 100%,"CC(C)(C)c1cc(C(=O)N2CCS(=O)(=O)CC2)c(NC(=O)Nc2cccc3ccccc23)s1 [Example 2, 1-[5-tert-butyl-3-(1,1-dioxo-1λ^6-thiomorpholine-4-carbonyl)thiophen-2-yl]-3-naphthalen-1-ylurea]"
3,76 to 100%,"CC(C)(C)c1cc(CN2CCS(=O)(=O)CC2)c(NC(=O)Nc2ccc(Cl)cc2)s1 [Example 3, 1-[5-tert-butyl-3-(1,1-dioxo-1λ^6-thiomorpholin-4-ylmethyl)thiophen-2-yl]-3-(4-chlorophenyl)urea]"
4,76 to 100%,"CC(C)(C)c1cc(C(=O)N2CCS(=O)(=O)CC2)c(NC(=O)Nc2ccc3ccccc3c2)s1 [Example 4, 1-[5-tert-butyl-3-(1,1-dioxo-1λ^6-thiomorpholine-4-carbonyl)thiophen-2-yl]-3-naphthalen-2-ylurea]"
5,76 to 100%,"CC(C)(C)c1cc(CN2CCS(=O)(=O)CC2)c(NC(=O)Nc2cccc3ccccc23)s1 [Example 5, 1-[5-tert-butyl-3-(1,1-dioxo-1λ^6-thiomorpholin-4-ylmethyl)thiophen-2-yl]-3-naphthalen-1-ylurea]"
6,76 to 100%,"CC(C)(C)c1cc(CN2CCS(=O)(=O)CC2)c(NC(=O)Nc2ccc3ccccc3c2)s1 [Example 6, 1-[5-tert-butyl-3-(1,1-dioxo-1λ^6-thiomorpholin-4-ylmethyl)thiophen-2-yl]-3-naphthalen-2-ylurea]"
7,51 to 75%,"CC(C)(C)c1cc(NC(=O)Nc2ccc(Cl)cc2)n(CC(=O)N2CCS(=O)(=O)CC2)n1 [Example 7, 1-{5-tert-butyl-2-[2-(1,1-dioxo-1λ^6-thiomorpholin-4-yl)-2-oxoethyl]-2H-pyrazol-3-yl}-3-(4-chlorophenyl)urea]"
8,51 to 75%,"CC(C)(C)c1cc(NC(=O)Nc2cccc3ccccc23)n(CC(=O)N2CCS(=O)(=O)CC2)n1 [Example 9, 1-{5-tert-butyl-2-[2-(1,1-dioxo-1λ^6-thiomorpholin-4-yl)-2-oxoethyl]-2H-pyrazol-3-yl}-3-naphthalen-1-ylurea]"
9,76 to 100%,"CC(C)(C)c1cc(NC(=O)Nc2ccc(Cl)cc2)c(C(=O)N2CCS(=O)(=O)CC2)s1 [Example 10, 1-[5-tert-butyl-2-(1,1-dioxo-1λ^6-thiomorpholine-4-carbonyl)thiophen-3-yl]-3-(4-chlorophenyl)urea]"
10,76 to 100%,"CC(C)(C)c1cc(NC(=O)Nc2cccc3ccccc23)c(C(=O)N2CCS(=O)(=O)CC2)s1 [Example 11, 1-[5-tert-butyl-2-(1,1-dioxo-1λ^6-thiomorpholine-4-carbonyl)thiophen-3-yl]-3-naphthalen-1-ylurea]"
11,76 to 100%,"CC(C)(C)c1cc(NC(=O)Nc2ccc3ccccc3c2)c(C(=O)N2CCS(=O)(=O)CC2)s1 [Example 12, 1-[5-tert-butyl-2-(1,1-dioxo-1λ^6-thiomorpholine-4-carbonyl)thiophen-3-yl]-3-naphthalen-2-ylurea]"
12,26 to 50%,"CC(C)(C)c1cc(NC(=O)Nc2ccc3ccccc3c2)c(CN2CCS(=O)(=O)CC2)s1 [Example 13, 1-[5-tert-butyl-2-(1,1-dioxo-1λ^6-thiomorpholin-4-ylmethyl)thiophen-3-yl]-3-naphthalen-2-ylurea]"
13,0 to 25%,"CC(C)(C)c1cc(NC(=O)Nc2cccc3ccccc23)c(CN2CCS(=O)(=O)CC2)s1 [Example 14, 1-[5-tert-butyl-2-(1,1-dioxo-1λ^6-thiomorpholin-4-ylmethyl)thiophen-3-yl]-3-naphthalen-1-ylurea]"
14,51 to 75%,"CC(C)(C)c1cc(NC(=O)Nc2ccc(Cl)cc2)c(CN2CCS(=O)(=O)CC2)s1 [Example 15, 1-[5-tert-butyl-2-(1,1-dioxo-1λ^6-thiomorpholin-4-ylmethyl)thiophen-3-yl]-3-(4-chlorophenyl)urea]"
15,26 to 50%,"CC(C)(C)c1cc(C(=O)N2CCOCC2)c(NC(=O)Nc2cccc3ccccc23)s1 [Example 16, 1-[5-tert-butyl-3-(morpholine-4-carbonyl)thiophen-2-yl]-3-naphthalen-1-yl-urea]"
16,76 to 100%,"CC(C)(C)c1cc(NC(=O)Nc2ccc(Cl)cc2)n(C(=O)N2CCS(=O)(=O)CC2)n1 [Example 17, 1-[5-tert-butyl-2-(1,1-dioxo-1λ^6-thiomorpholine-4-carbonyl)-2H-pyrazol-3-yl]-3-(4-chlorophenyl)urea]"

row,inhibition at 10 µM,SMILES
1,51 to 75%,"CC(C)(C)c1cc(C(=O)N2CCSCC2)c(NC(=O)Nc2cccc3ccccc23)s1 [Example 18, 1-[5-tert-butyl-3-(thiomorpholine-4-carbonyl)thiophen-2-yl]-3-naphthalen-1-ylurea]"
2,51 to 75%,"CC(C)(C)c1cc(CN2CCOCC2)c(NC(=O)Nc2cccc3ccccc23)s1 [Example 19, 1-(5-tert-butyl-3-morpholin-4-ylmethylthiophen-2-yl)-3-naphthalen-1-ylurea]"
3,0 to 25%,"CC(C)(C)c1cc(CN2CCSCC2)c(NC(=O)Nc2cccc3ccccc23)s1 [Example 20, 1-(5-tert-butyl-3-thiomorpholin-4-ylmethylthiophen-2-yl)-3-naphthalen-1-yl-urea]"
4,76 to 100%,"CC(C)(C)c1cc(NC(=O)Nc2cccc3ccccc23)n(C(=O)N2CCS(=O)(=O)CC2)n1 [Example 21, 1-[5-tert-butyl-2-(1,1-dioxo-1λ^6-thiomorpholine-4-carbonyl)-2H-pyrazol-3-yl]-3-naphthalen-1-ylurea]"
5,26 to 50%,"CC(C)(C)c1cc(C(=O)N2CC[S+]([O-])CC2)c(NC(=O)Nc2cccc3ccccc23)s1 [Example 22, 1-[5-tert-butyl-3-(1-oxo-1λ^4-thiomorpholine-4-carbonyl)thiophen-2-yl]-3-naphthalen-1-ylurea]"
6,26 to 50%,"CC(C)(C)c1cc(NC(=O)Nc2ccc3ccccc3c2)n(C(=O)N2CCS(=O)(=O)CC2)n1 [Example 23, 1-[5-tert-butyl-2-(1,1-dioxo-1λ^6-thiomorpholine-4-carbonyl)-2H-pyrazol-3-yl]-3-naphthalen-2-ylurea]"
7,76 to 100%,"CC(C)(C)c1nc(C(=O)N2CCS(=O)(=O)CC2)c(NC(=O)Nc2cccc3ccccc23)s1 [Example 25, 1-[2-tert-butyl-4-(1,1-dioxo-1λ^6-thiomorpholine-4-carbonyl)thiazol-5-yl]-3-naphthalen-1-ylurea]"
8,51 to 75%,"CC(C)(C)c1nc(C(=O)N2CCS(=O)(=O)CC2)c(NC(=O)Nc2ccc3ccccc3c2)s1 [Example 26, 1-[2-tert-butyl-4-(1,1-dioxo-1λ^6-thiomorpholine-4-carbonyl)thiazol-5-yl]-3-naphthalen-2-ylurea]"
9,0 to 25%,"CC(C)(C)c1cc(C(=O)N2CCS(=O)(=O)CC2)c(NC(=O)Nc2ccc(Oc3ccccc3)cc2)s1 [Example 28, 1-[5-tert-butyl-3-(1,1-dioxo-1λ^6-thiomorpholine-4-carbonyl)thiophen-2-yl]-3-(4-phenoxyphenyl)urea]"
10,0 to 25%,"CC(C)(C)c1cc(C(=O)N2CCS(=O)(=O)CC2)c(NC(=O)Nc2cccc3cccnc23)s1 [Example 29, 1-[5-tert-butyl-3-(1,1-dioxo-1λ^6-thiomorpholine-4-carbonyl)thiophen-2-yl]-3-quinolin-8-ylurea]"
11,51 to 75%,"CC(C)(C)c1cc(C(=O)N2CCS(=O)(=O)CC2)c(NC(=O)NC2CCc3ccccc32)s1 (stereo not drawn) [Example 30, 1-[5-tert-butyl-3-(1,1-dioxo-1λ^6-thiomorpholine-4-carbonyl)thiophen-2-yl]-3-indan-1-ylurea]"
12,51 to 75%,"CC(C)(C)c1cc(C(=O)N2CCS(=O)(=O)CC2)c(NC(=O)Nc2ccnc3ccccc23)s1 [Example 31, 1-[5-tert-butyl-3-(1,1-dioxo-1λ^6-thiomorpholine-4-carbonyl)thiophen-2-yl]-3-quinolin-4-ylurea]"
13,26 to 50%,"CC(C)(C)c1cc(C(=O)N2CCS(=O)(=O)CC2)c(NC(=O)Nc2cccc3cn[nH]c23)s1 [Example 32, 1-[5-tert-butyl-3-(1,1-dioxo-1λ^6-thiomorpholine-4-carbonyl)thiophen-2-yl]-3-(1H-indazol-7-yl)urea]"
14,0 to 25%,"CC(C)(C)c1cc(C(=O)N2CCS(=O)(=O)CC2)c(NC(=O)Nc2ccc3c(c2)NC(=O)CC3)s1 [Example 33, 1-[5-tert-butyl-3-(1,1-dioxo-1λ^6-thiomorpholine-4-carbonyl)thiophen-2-yl]-3-(2-oxo-1,2,3,4-tetrahydroquinolin-7-yl)urea]"
15,76 to 100%,"CC(C)(C)c1cc(C(=O)N2CCS(=O)(=O)CC2)c(NC(=O)Nc2ccc(O)c3ccccc23)s1 [Example 34, 1-[5-tert-butyl-3-(1,1-dioxo-1λ^6-thiomorpholine-4-carbonyl)thiophen-2-yl]-3-(4-hydroxynaphthalen-1-yl)urea]"
16,51 to 75%,"CC(C)(C)c1cc(C(=O)N2CCNC(=O)C2)c(NC(=O)Nc2cccc3ccccc23)s1 [Example 35, 1-[5-tert-butyl-3-(3-oxopiperazine-1-carbonyl)thiophen-2-yl]-3-naphthalen-1-ylurea]"
